# System: Alopecurus myosuroides (ALOMY)
# Assay: Glasshouse herbicide test, pre- and post-emergence, percentage damage
# Type: in vivo
# Conditions: post-emergence, 1000 g/h, evaluated after 13 days, five point scale
# Method: (§1) Seeds of a variety of test species are sown in standard soil in pots (Alopecurus myosuroides (ALOMY), Setaria faberi (SETFA), Stellaria media (STEME), Echinochloa crus-galli (ECHCG), Solanum nigrum (SOLNI), Amaranthus retoflexus (AMARE), Ipomoea hederacea (IPOHE), Lolium perenne (LOLPE). After cultivation for one day (pre-emergence) or after 8 days cultivation (post-emergence) under controlled conditions in a glasshouse (at 24/16° C., day/night; 14 hours light; 65% humidity), the plants are sprayed with an aqueous spray solution derived from the formulation of the technical active ingredient in acetone/water (50:50) solution containing 0.5% Tween 20 (polyoxyethelyene sorbitan monolaurate, CAS RN 9005-64-5). Compounds ae applied at 1000 g/h. The test plants are then grown in a glasshouse under controlled conditions in a glasshouse (at 24/16° C., day/night; 14 hours light; 65% humidity) and watered twice daily. After 13 days for pre and post-emergence, the test is evaluated for the percentage damage caused to the plant. The biological activities are shown in the following table on a five point scale (5=80-100%; 4=60-79%; 3=40-59%; 2=20-39%; 1=0-19%).
row,Structure (SMILES),"percentage damage caused to the plant, ALOMY, POST Application"
1,COCCOCc1nc(C(C)(F)F)ccc1C(=O)Nc1nnnn1C [Compound 1.008],5 (5=80-100%)
2,Cn1nnnc1NC(=O)c1cc(Cl)ccc1C(F)(F)F [Compound 1.009],5 (5=80-100%)
3,Cc1ccc(C(F)(F)F)c(C(=O)Nc2nnnn2C)c1 [Compound 1.014],3 (3=40-59%)
4,Cn1nnnc1NC(=O)c1cc(F)ccc1C(F)(F)F [Compound 1.010],5 (5=80-100%)
5,Cn1nnnc1NC(=O)c1cc(Br)c(Cl)cc1F [Compound 1.012],2 (2=20-39%)

# Same assay, conditions: pre-emergence, 1000 g/h, evaluated after 13 days, five point scale
row,Structure (SMILES),"percentage damage caused to the plant, ALOMY, PRE Application"
1,COCCOCc1nc(C(C)(F)F)ccc1C(=O)Nc1nnnn1C [Compound 1.008],5 (5=80-100%)
2,Cn1nnnc1NC(=O)c1cc(Cl)ccc1C(F)(F)F [Compound 1.009],5 (5=80-100%)
3,Cc1ccc(C(F)(F)F)c(C(=O)Nc2nnnn2C)c1 [Compound 1.014],4 (4=60-79%)
4,Cn1nnnc1NC(=O)c1cc(F)ccc1C(F)(F)F [Compound 1.010],5 (5=80-100%)
5,Cn1nnnc1NC(=O)c1cc(Br)c(Cl)cc1F [Compound 1.012],1 (1=0-19%)

# System: Amaranthus retoflexus (AMARE)
# Assay: as above
# Type: in vivo
# Conditions: post-emergence, 1000 g/h, evaluated after 13 days, five point scale (Table B1)
# Method: as §1
row,Structure (SMILES),"percentage damage caused to the plant, AMARE, POST Application"
1,COCCOCc1nc(C(C)(F)F)ccc1C(=O)Nc1nnnn1C [Compound 1.008],5 (5=80-100%)
2,Cn1nnnc1NC(=O)c1cc(Cl)ccc1C(F)(F)F [Compound 1.009],5 (5=80-100%)
3,Cc1ccc(C(F)(F)F)c(C(=O)Nc2nnnn2C)c1 [Compound 1.014],5 (5=80-100%)
4,Cn1nnnc1NC(=O)c1cc(F)ccc1C(F)(F)F [Compound 1.010],5 (5=80-100%)
5,Cn1nnnc1NC(=O)c1cc(Br)c(Cl)cc1F [Compound 1.012],5 (5=80-100%)

# Same assay, conditions: pre-emergence, 1000 g/h, evaluated after 13 days, five point scale (Table B1)
row,Structure (SMILES),"percentage damage caused to the plant, AMARE, PRE Application"
1,COCCOCc1nc(C(C)(F)F)ccc1C(=O)Nc1nnnn1C [Compound 1.008],5 (5=80-100%)
2,Cn1nnnc1NC(=O)c1cc(Cl)ccc1C(F)(F)F [Compound 1.009],5 (5=80-100%)
3,Cc1ccc(C(F)(F)F)c(C(=O)Nc2nnnn2C)c1 [Compound 1.014],5 (5=80-100%)
4,Cn1nnnc1NC(=O)c1cc(F)ccc1C(F)(F)F [Compound 1.010],5 (5=80-100%)
5,Cn1nnnc1NC(=O)c1cc(Br)c(Cl)cc1F [Compound 1.012],4 (4=60-79%)

# System: Echinochloa crus-galli (ECHCG)
# Assay: as above
# Type: in vivo
# Conditions: post-emergence, 1000 g/h, evaluated after 13 days, five point scale
# Method: as §1
row,Structure (SMILES),"percentage damage caused to the plant, ECHCG, POST Application"
1,COCCOCc1nc(C(C)(F)F)ccc1C(=O)Nc1nnnn1C [Compound 1.008],5 (5=80-100%)
2,Cn1nnnc1NC(=O)c1cc(Cl)ccc1C(F)(F)F [Compound 1.009],2 (2=20-39%)
3,Cc1ccc(C(F)(F)F)c(C(=O)Nc2nnnn2C)c1 [Compound 1.014],3 (3=40-59%)
4,Cn1nnnc1NC(=O)c1cc(F)ccc1C(F)(F)F [Compound 1.010],4 (4=60-79%)
5,Cn1nnnc1NC(=O)c1cc(Br)c(Cl)cc1F [Compound 1.012],3 (3=40-59%)

# Same assay, conditions: pre-emergence, 1000 g/h, evaluated after 13 days, five point scale
row,Structure (SMILES),"percentage damage caused to the plant, ECHCG, PRE Application"
1,COCCOCc1nc(C(C)(F)F)ccc1C(=O)Nc1nnnn1C [Compound 1.008],5 (5=80-100%)
2,Cn1nnnc1NC(=O)c1cc(Cl)ccc1C(F)(F)F [Compound 1.009],2 (2=20-39%)
3,Cc1ccc(C(F)(F)F)c(C(=O)Nc2nnnn2C)c1 [Compound 1.014],3 (3=40-59%)
4,Cn1nnnc1NC(=O)c1cc(F)ccc1C(F)(F)F [Compound 1.010],4 (4=60-79%)
5,Cn1nnnc1NC(=O)c1cc(Br)c(Cl)cc1F [Compound 1.012],1 (1=0-19%)

# System: Ipomoea hederacea (IPOHE)
# Assay: as above
# Type: in vivo
# Conditions: post-emergence, 1000 g/h, evaluated after 13 days, five point scale
# Method: as §1
row,Structure (SMILES),"percentage damage caused to the plant, IPOHE, POST Application"
1,COCCOCc1nc(C(C)(F)F)ccc1C(=O)Nc1nnnn1C [Compound 1.008],5 (5=80-100%)
2,Cn1nnnc1NC(=O)c1cc(Cl)ccc1C(F)(F)F [Compound 1.009],5 (5=80-100%)
3,Cc1ccc(C(F)(F)F)c(C(=O)Nc2nnnn2C)c1 [Compound 1.014],5 (5=80-100%)
4,Cn1nnnc1NC(=O)c1cc(F)ccc1C(F)(F)F [Compound 1.010],5 (5=80-100%)
5,Cn1nnnc1NC(=O)c1cc(Br)c(Cl)cc1F [Compound 1.012],5 (5=80-100%)

# Same assay, conditions: pre-emergence, 1000 g/h, evaluated after 13 days, five point scale
row,Structure (SMILES),"percentage damage caused to the plant, IPOHE, PRE Application"
1,COCCOCc1nc(C(C)(F)F)ccc1C(=O)Nc1nnnn1C [Compound 1.008],5 (5=80-100%)
2,Cn1nnnc1NC(=O)c1cc(Cl)ccc1C(F)(F)F [Compound 1.009],4 (4=60-79%)
3,Cc1ccc(C(F)(F)F)c(C(=O)Nc2nnnn2C)c1 [Compound 1.014],4 (4=60-79%)
4,Cn1nnnc1NC(=O)c1cc(F)ccc1C(F)(F)F [Compound 1.010],5 (5=80-100%)
5,Cn1nnnc1NC(=O)c1cc(Br)c(Cl)cc1F [Compound 1.012],1 (1=0-19%)

# System: Setaria faberi (SETFA)
# Assay: as above
# Type: in vivo
# Conditions: post-emergence, 1000 g/h, evaluated after 13 days, five point scale
# Method: as §1
row,Structure (SMILES),"percentage damage caused to the plant, SETFA, POST Application"
1,COCCOCc1nc(C(C)(F)F)ccc1C(=O)Nc1nnnn1C [Compound 1.008],5 (5=80-100%)
2,Cn1nnnc1NC(=O)c1cc(Cl)ccc1C(F)(F)F [Compound 1.009],1 (1=0-19%)
3,Cc1ccc(C(F)(F)F)c(C(=O)Nc2nnnn2C)c1 [Compound 1.014],1 (1=0-19%)
4,Cn1nnnc1NC(=O)c1cc(F)ccc1C(F)(F)F [Compound 1.010],2 (2=20-39%)
5,Cn1nnnc1NC(=O)c1cc(Br)c(Cl)cc1F [Compound 1.012],4 (4=60-79%)

# Same assay, conditions: pre-emergence, 1000 g/h, evaluated after 13 days, five point scale
row,Structure (SMILES),"percentage damage caused to the plant, SETFA, PRE Application"
1,COCCOCc1nc(C(C)(F)F)ccc1C(=O)Nc1nnnn1C [Compound 1.008],5 (5=80-100%)
2,Cn1nnnc1NC(=O)c1cc(Cl)ccc1C(F)(F)F [Compound 1.009],1 (1=0-19%)
3,Cc1ccc(C(F)(F)F)c(C(=O)Nc2nnnn2C)c1 [Compound 1.014],1 (1=0-19%)
4,Cn1nnnc1NC(=O)c1cc(F)ccc1C(F)(F)F [Compound 1.010],2 (2=20-39%)
5,Cn1nnnc1NC(=O)c1cc(Br)c(Cl)cc1F [Compound 1.012],1 (1=0-19%)

# System: Solanum nigrum (SOLNI)
# Assay: as above
# Type: in vivo
# Conditions: post-emergence, 1000 g/h, evaluated after 13 days, five point scale
# Method: as §1
row,Structure (SMILES),"percentage damage caused to the plant, SOLNI, POST Application"
1,COCCOCc1nc(C(C)(F)F)ccc1C(=O)Nc1nnnn1C [Compound 1.008],5 (5=80-100%)
2,Cn1nnnc1NC(=O)c1cc(Cl)ccc1C(F)(F)F [Compound 1.009],5 (5=80-100%)
3,Cc1ccc(C(F)(F)F)c(C(=O)Nc2nnnn2C)c1 [Compound 1.014],5 (5=80-100%)
4,Cn1nnnc1NC(=O)c1cc(F)ccc1C(F)(F)F [Compound 1.010],5 (5=80-100%)
5,Cn1nnnc1NC(=O)c1cc(Br)c(Cl)cc1F [Compound 1.012],4 (4=60-79%)

# Same assay, conditions: pre-emergence, 1000 g/h, evaluated after 13 days, five point scale
row,Structure (SMILES),"percentage damage caused to the plant, SOLNI, PRE Application"
1,COCCOCc1nc(C(C)(F)F)ccc1C(=O)Nc1nnnn1C [Compound 1.008],5 (5=80-100%)
2,Cn1nnnc1NC(=O)c1cc(Cl)ccc1C(F)(F)F [Compound 1.009],5 (5=80-100%)
3,Cc1ccc(C(F)(F)F)c(C(=O)Nc2nnnn2C)c1 [Compound 1.014],5 (5=80-100%)
4,Cn1nnnc1NC(=O)c1cc(F)ccc1C(F)(F)F [Compound 1.010],5 (5=80-100%)
5,Cn1nnnc1NC(=O)c1cc(Br)c(Cl)cc1F [Compound 1.012],1 (1=0-19%)

# Source: patent publication US9686986B2, “Herbicidal compounds” (SYNGENTA LIMITED, priority 2011, dated 2017)
